Laboratory results taken from the supplement of paper PMC4862054.
Each block holds one molecule with its values, some of them ahead of it.

Assays:
Conditions in all cases: 72 h
HDQ-P1 [1] = system: HDQ-P1
Procedure: (§1)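 Drug sensitivity and resistance testing (DSRT) of breast cancer cell lines in 384-well plates, 5 concentrations in 10-fold dilutions over a compound-specific 10,000-fold range. After 72 h, cytotoxicity was read by CellTox Green fluorescence and viability by CellTiter-Glo luminescence (multiplexed), normalised to DMSO and benzethonium chloride controls. EC50 is the inflection point of the fitted dose-response curve (bottom asymptote free, so it can be relative for partial curves) and is censored at the highest tested concentration. Rows with DSS 0 (no meaningful response) were excluded.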

CAL-148 [2] = system: CAL-148
Procedure: as §1

MDA-MB-231 [3] = system: MDA-MB-231
Procedure: as §1

MCF-10A [4] = system: MCF-10A
Procedure: as §1

MDA-MB-453 [5] = system: MDA-MB-453
Procedure: as §1

DU-4475 [6] = system: DU-4475
Procedure: as §1

CAL-120 [7] = system: CAL-120
Procedure: as §1

HCC1937 [8] = system: HCC1937
Procedure: as §1

HDQ-P1 [9] = system: HDQ-P1; remark: listed apart in the source
Method in brief: (§2)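 After 72 h on 384-well plates pre-loaded with compound in 5 µl medium, breast cancer cell lines seeded in 20 µl were assayed for viability with 2.5 µl CellTiter-Blue at 37 °C for 2 h, read at 560/590 nm. Each plate was quality-checked by Z'-factor and normalised to vehicle and a positive kill control. EC50 comes from the fitted percent-inhibition dose-response curve, censored at the top concentration, and rows scoring zero for drug sensitivity were left out.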

MFM-223 [10] = system: MFM-223
Method in brief: as §2

MDA-MB-231 [11] = system: MDA-MB-231; remark: listed apart in the source
Method in brief: as §2

SK-BR-3 [12] = system: SK-BR-3
Method in brief: as §2

BT-474 [13] = system: BT-474
Method in brief: as §2

HCC1599 [14] = system: HCC1599
Method in brief: as §2

MDA-MB-436 [15] = system: MDA-MB-436
Method in brief: as §2

Hs578T [16] = system: Hs578T
Method in brief: as §2

BT-549 [17] = system: BT-549
Method in brief: as §2

HCC1143 [18] = system: HCC1143
Method in brief: as §2

CAL-120 [19] = system: CAL-120; remark: listed apart in the source
Method in brief: as §2

HCC1937 [20] = system: HCC1937; remark: listed apart in the source
Method in brief: as §2

MDA-MB-468 [21] = system: MDA-MB-468
Method in brief: as §2

HDQ-P1 [22] = system: HDQ-P1; remark: listed apart in the source
Method in brief: (§3)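 The plates used were 384-well plates holding compound at 5 concentrations in 10-fold steps across a compound-specific 10,000-fold range, into which breast cancer cell lines were seeded in 20 µl suspension. Following 72 h incubation, CellTox Green fluorescence was read at 485/520 nm, and CellTiter-Glo luminescence was read after 10 min at room temperature. Normalisation on each plate used 0.1 % DMSO and a positive kill control. Dose-response curves gave the EC50, which was censored at the top concentration.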

MFM-223 [23] = system: MFM-223; remark: listed apart in the source
Method in brief: as §3

CAL-51 = system: CAL-51
Method in brief: as §3

CAL-148 [24] = system: CAL-148; remark: listed apart in the source
Method in brief: as §3

MDA-MB-231 [25] = system: MDA-MB-231; remark: listed apart in the source
Method in brief: as §3

MCF-10A [26] = system: MCF-10A; remark: listed apart in the source
Method in brief: as §3

SK-BR-3 [27] = system: SK-BR-3; remark: listed apart in the source
Method in brief: as §3

MDA-MB-453 [28] = system: MDA-MB-453; remark: listed apart in the source
Method in brief: as §3

BT-474 [29] = system: BT-474; remark: listed apart in the source
Method in brief: as §3

CAL-85-1 = system: CAL-85-1
Method in brief: as §3

HCC1599 [30] = system: HCC1599; remark: listed apart in the source
Method in brief: as §3

DU-4475 [31] = system: DU-4475; remark: listed apart in the source
Method in brief: as §3

MDA-MB-436 [32] = system: MDA-MB-436; remark: listed apart in the source
Method in brief: as §3

Hs578T [33] = system: Hs578T; remark: listed apart in the source
Method in brief: as §3

BT-549 [34] = system: BT-549; remark: listed apart in the source
Method in brief: as §3

HCC1143 [35] = system: HCC1143; remark: listed apart in the source
Method in brief: as §3

CAL-120 [36] = system: CAL-120; remark: listed apart in the source
Method in brief: as §3

HCC1937 [37] = system: HCC1937; remark: listed apart in the source
Method in brief: as §3

MDA-MB-468 [38] = system: MDA-MB-468; remark: listed apart in the source
Method in brief: as §3

MFM-223 [39] = system: MFM-223; remark: listed apart in the source
Procedure: as §1

SMILES: CCNC(=O)c1noc(-c2cc(C(C)C)c(O)cc2O)c1-c1ccc(CN2CCOCC2)cc1 [NVP-AUY922]
EC50, CellTox Green (HDQ-P1 [1]): 33 nM
EC50, CellTox Green (CAL-148 [2]): 29.5 nM
EC50, CellTox Green (MDA-MB-231 [3]): 9.41 nM
EC50, CellTox Green (MCF-10A [4]): 7.61 nM
EC50, CellTox Green (MDA-MB-453 [5]): > 1000 nM
EC50, CellTox Green (DU-4475 [6]): 25.2 nM
EC50, CellTox Green (CAL-120 [7]): > 1000 nM
EC50, CellTox Green (HCC1937 [8]): 987 nM
EC50, CellTiter-Blue viability (HDQ-P1 [9]): 9.72 nM
EC50, CellTiter-Blue viability (MFM-223 [10]): 5.15 nM
EC50, CellTiter-Blue viability (MDA-MB-231 [11]): 6.7 nM
EC50, CellTiter-Blue viability (SK-BR-3 [12]): 6.13 nM
EC50, CellTiter-Blue viability (BT-474 [13]): 23.4 nM
EC50, CellTiter-Blue viability (HCC1599 [14]): 45.2 nM
EC50, CellTiter-Blue viability (MDA-MB-436 [15]): 10.2 nM
EC50, CellTiter-Blue viability (Hs578T [16]): 0.00374 µM
EC50, CellTiter-Blue viability (BT-549 [17]): 5.61 nM
EC50, CellTiter-Blue viability (HCC1143 [18]): 32.2 nM
EC50, CellTiter-Blue viability (CAL-120 [19]): 7.81 nM
EC50, CellTiter-Blue viability (HCC1937 [20]): 0.76 nM
EC50, CellTiter-Blue viability (MDA-MB-468 [21]): 7.89 nM
EC50, CellTiter-Glo (HDQ-P1 [22]): 14.1 nM
EC50, CellTiter-Glo (MFM-223 [23]): 10.2 nM
EC50, CellTiter-Glo (CAL-51): 34 nM
EC50, CellTiter-Glo (CAL-148 [24]): 41.4 nM
EC50, CellTiter-Glo (MDA-MB-231 [25]): 40.4 nM
EC50, CellTiter-Glo (MCF-10A [26]): 27.6 nM
EC50, CellTiter-Glo (SK-BR-3 [27]): 7.09 nM
EC50, CellTiter-Glo (MDA-MB-453 [28]): 0.0426 µM
EC50, CellTiter-Glo (BT-474 [29]): 42.4 nM
EC50, CellTiter-Glo (CAL-85-1): 38.8 nM
EC50, CellTiter-Glo (HCC1599 [30]): 37.1 nM
EC50, CellTiter-Glo (DU-4475 [31]): 33.1 nM
EC50, CellTiter-Glo (MDA-MB-436 [32]): 0.00543 µM
EC50, CellTiter-Glo (Hs578T [33]): 41.8 nM
EC50, CellTiter-Glo (BT-549 [34]): 11.7 nM
EC50, CellTiter-Glo (HCC1143 [35]): 38.7 nM
EC50, CellTiter-Glo (CAL-120 [36]): 37.2 nM
EC50, CellTiter-Glo (HCC1937 [37]): 0.028 µM
EC50, CellTiter-Glo (MDA-MB-468 [38]): 4.55 nM

SMILES: CC1(C)CCC(c2ccc(Cl)cc2)=C(CN2CCN(c3ccc(C(=O)NS(=O)(=O)c4ccc(N[C@H](CCN5CCOCC5)CSc5ccccc5)c(S(=O)(=O)C(F)(F)F)c4)cc3)CC2)C1 [Navitoclax]
EC50, CellTox Green (HDQ-P1 [1]): 289 nM
EC50, CellTox Green (MFM-223 [39]): 2200 nM
EC50, CellTox Green (CAL-148 [2]): 306 nM
EC50, CellTox Green (MDA-MB-231 [3]): 162 nM
EC50, CellTox Green (CAL-120 [7]): 884 nM
EC50, CellTiter-Blue viability (HDQ-P1 [9]): 27.4 nM
EC50, CellTiter-Blue viability (MFM-223 [10]): 101 nM
EC50, CellTiter-Blue viability (MDA-MB-231 [11]): 614 nM
EC50, CellTiter-Blue viability (HCC1599 [14]): 166 nM
EC50, CellTiter-Blue viability (BT-549 [17]): 373 nM
EC50, CellTiter-Blue viability (CAL-120 [19]): 235 nM
EC50, CellTiter-Blue viability (MDA-MB-468 [21]): 109 nM
EC50, CellTiter-Glo (HDQ-P1 [22]): 392 nM
EC50, CellTiter-Glo (MFM-223 [23]): > 10000 nM
EC50, CellTiter-Glo (CAL-51): 1260 nM
EC50, CellTiter-Glo (CAL-148 [24]): 1000 nM
EC50, CellTiter-Glo (MDA-MB-231 [25]): 774 nM
EC50, CellTiter-Glo (MDA-MB-453 [28]): 6.68 µM
EC50, CellTiter-Glo (BT-474 [29]): 1680 nM
EC50, CellTiter-Glo (DU-4475 [31]): 2990 nM
EC50, CellTiter-Glo (BT-549 [34]): > 10000 nM
EC50, CellTiter-Glo (CAL-120 [36]): 3900 nM
EC50, CellTiter-Glo (HCC1937 [37]): > 10 µM
EC50, CellTiter-Glo (MDA-MB-468 [38]): 86.4 nM

SMILES: CC[C@H](CO)Nc1nc(NCc2ccccc2)c2ncn(C(C)C)c2n1 [Seliciclib]
EC50, CellTiter-Glo (CAL-51): 595 nM

SMILES: C=CCN(/C=C1/C(=O)O[C@H](COC)[C@@]2(C)C1=C(O)C(=O)C1=C2[C@H](OC(C)=O)C[C@]2(C)C(=O)CC[C@@H]12)CC=C [Sonolisib]
EC50, CellTiter-Glo (CAL-51): 390 nM

Now from value to molecule, other results behind:

EC50, CellTiter-Blue viability (BT-549 [17]): 2590 nM
EC50, CellTiter-Blue viability (HCC1937 [20]): 117 nM
EC50, CellTiter-Glo (BT-549 [34]): > 10000 nM
SMILES: Cc1cn(-c2cc(NC(=O)c3ccc(C)c(Nc4nccc(-c5cccnc5)n4)c3)cc(C(F)(F)F)c2)cn1 [Nilotinib]
EC50, CellTiter-Glo (CAL-51): 32.6 nM

EC50, CellTiter-Blue viability (MDA-MB-231 [11]): 951 nM
EC50, CellTiter-Blue viability (SK-BR-3 [12]): 1320 nM
EC50, CellTiter-Blue viability (BT-474 [13]): 1680 nM
EC50, CellTiter-Blue viability (HCC1143 [18]): 1130 nM
EC50, CellTiter-Blue viability (HCC1937 [20]): 725 nM
EC50, CellTiter-Blue viability (MDA-MB-468 [21]): 1390 nM
SMILES: C=CCN(/C=C1/C(=O)O[C@H](COC)[C@@]2(C)C1=C(O)C(=O)C1=C2[C@H](OC(C)=O)C[C@]2(C)C(=O)CC[C@@H]12)CC=C [PX-866]
EC50, CellTiter-Blue viability (HDQ-P1 [9]): 2170 nM
EC50, CellTiter-Blue viability (Hs578T [16]): 6.75 µM
EC50, CellTiter-Blue viability (CAL-120 [19]): 1020 nM

EC50, CellTiter-Blue viability (HCC1599 [14]): 2290 nM
EC50, CellTiter-Blue viability (MDA-MB-436 [15]): 2500 nM
EC50, CellTiter-Blue viability (BT-549 [17]): 684 nM
EC50, CellTiter-Blue viability (HCC1143 [18]): > 10000 nM
SMILES: CC[C@H](CO)Nc1nc(NCc2ccccc2)c2ncn(C(C)C)c2n1 [Roscovitine]
EC50, CellTiter-Blue viability (Hs578T [16]): 7.66 µM

EC50, CellTiter-Glo (MDA-MB-453 [28]): > 10 µM
EC50, CellTiter-Glo (MDA-MB-436 [32]): 7.63 µM
EC50, CellTiter-Glo (BT-549 [34]): 565 nM
EC50, CellTiter-Glo (HCC1937 [37]): > 10 µM
EC50, CellTiter-Glo (MDA-MB-468 [38]): 9610 nM
SMILES: CC(C)n1cnc2c(NCCc3ccc(O)cc3)nc(-c3csc4ccccc34)nc21 [StemRegenin 1]
EC50, CellTox Green (MFM-223 [39]): 2810 nM
EC50, CellTiter-Glo (HDQ-P1 [22]): 4790 nM
EC50, CellTiter-Glo (MFM-223 [23]): 2020 nM
